Reference: patent US20240383905A1, “FGFR INHIBITORS AND METHODS OF USE THEREOF” (3H PHARMACEUTICALS CO., LTD., priority 2021, published 2024)
Read-outs that look alike come from different tables or passages of the source.

Tests used:
[1] = molecular target: T1, FGFR2 (Homo sapiens, UniProt P21802); test: FGFR2 Biochemical Caliper Assay (KinEASE-TK kit); conditions: 0.07 nM FGFR2; compound incubated with protein 10 min, reaction 45 min at RT; read-out: FGFR2 Cliper IC50
T1 construct: purchased Carna 08-134
T1 sequence (P21802 22-821): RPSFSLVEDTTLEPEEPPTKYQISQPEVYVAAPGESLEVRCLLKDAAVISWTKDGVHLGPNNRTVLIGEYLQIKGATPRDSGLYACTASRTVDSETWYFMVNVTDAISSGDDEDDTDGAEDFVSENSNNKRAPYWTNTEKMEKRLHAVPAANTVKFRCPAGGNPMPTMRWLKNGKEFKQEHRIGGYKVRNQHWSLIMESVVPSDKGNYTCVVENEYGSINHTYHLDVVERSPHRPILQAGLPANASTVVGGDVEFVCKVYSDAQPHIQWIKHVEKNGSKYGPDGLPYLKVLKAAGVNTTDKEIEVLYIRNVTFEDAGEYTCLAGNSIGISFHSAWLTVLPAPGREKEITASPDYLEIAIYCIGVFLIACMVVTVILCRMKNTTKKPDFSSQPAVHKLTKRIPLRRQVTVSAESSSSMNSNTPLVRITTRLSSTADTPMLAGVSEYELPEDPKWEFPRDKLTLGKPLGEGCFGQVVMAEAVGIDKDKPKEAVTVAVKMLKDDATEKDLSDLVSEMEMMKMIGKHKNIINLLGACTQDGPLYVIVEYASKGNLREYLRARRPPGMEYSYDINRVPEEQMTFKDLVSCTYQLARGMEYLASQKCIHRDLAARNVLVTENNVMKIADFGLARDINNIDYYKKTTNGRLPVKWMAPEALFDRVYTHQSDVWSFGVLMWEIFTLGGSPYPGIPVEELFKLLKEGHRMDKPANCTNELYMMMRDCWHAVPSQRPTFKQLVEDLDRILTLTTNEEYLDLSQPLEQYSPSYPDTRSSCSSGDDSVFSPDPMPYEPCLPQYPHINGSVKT

[2] = molecular target: T2, FGFR1 (Homo sapiens, UniProt P11362); test: FGFR1 Biochemical Caliper Assay (KinEASE-TK kit); conditions: ratio FGFR1/FGFR2 of the biochemical assay
T2 construct: purchased Carna 08-133
T2 sequence (P11362 22-822): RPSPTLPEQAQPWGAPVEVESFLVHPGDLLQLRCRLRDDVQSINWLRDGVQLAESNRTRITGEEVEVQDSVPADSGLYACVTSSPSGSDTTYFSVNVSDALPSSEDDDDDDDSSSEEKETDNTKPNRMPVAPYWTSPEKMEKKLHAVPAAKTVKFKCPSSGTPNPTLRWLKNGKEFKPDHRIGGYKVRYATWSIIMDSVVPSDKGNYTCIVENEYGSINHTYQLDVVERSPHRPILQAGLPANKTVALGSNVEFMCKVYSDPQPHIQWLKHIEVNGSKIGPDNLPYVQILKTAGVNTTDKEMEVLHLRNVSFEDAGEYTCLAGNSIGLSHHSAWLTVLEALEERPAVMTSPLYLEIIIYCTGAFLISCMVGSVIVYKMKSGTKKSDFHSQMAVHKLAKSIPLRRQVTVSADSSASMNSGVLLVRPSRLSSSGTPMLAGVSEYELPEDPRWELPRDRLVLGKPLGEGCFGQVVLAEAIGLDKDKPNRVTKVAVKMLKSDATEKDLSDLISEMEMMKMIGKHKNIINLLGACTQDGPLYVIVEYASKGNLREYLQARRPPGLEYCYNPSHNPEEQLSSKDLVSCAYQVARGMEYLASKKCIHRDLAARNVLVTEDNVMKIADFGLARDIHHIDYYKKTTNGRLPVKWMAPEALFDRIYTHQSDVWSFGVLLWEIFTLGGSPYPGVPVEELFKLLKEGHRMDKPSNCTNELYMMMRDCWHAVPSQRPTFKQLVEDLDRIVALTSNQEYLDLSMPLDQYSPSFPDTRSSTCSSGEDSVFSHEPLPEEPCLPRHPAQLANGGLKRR
Outline: (§1)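 KinEASE-TK HTRF readout: enzyme at 0.2 nM (FGFR1, FGFR3) preincubated 10 min at RT with 10-point 3-fold compound dilutions before TK-substrate/ATP start.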

[3] = molecular target: T3, FGFR3 (Homo sapiens, UniProt P22607); test: FGFR3 Biochemical Caliper Assay (KinEASE-TK kit); conditions: ratio FGFR3/FGFR2 of the biochemical assay
T3 construct: purchased Carna 08-135
T3 sequence (P22607 23-806): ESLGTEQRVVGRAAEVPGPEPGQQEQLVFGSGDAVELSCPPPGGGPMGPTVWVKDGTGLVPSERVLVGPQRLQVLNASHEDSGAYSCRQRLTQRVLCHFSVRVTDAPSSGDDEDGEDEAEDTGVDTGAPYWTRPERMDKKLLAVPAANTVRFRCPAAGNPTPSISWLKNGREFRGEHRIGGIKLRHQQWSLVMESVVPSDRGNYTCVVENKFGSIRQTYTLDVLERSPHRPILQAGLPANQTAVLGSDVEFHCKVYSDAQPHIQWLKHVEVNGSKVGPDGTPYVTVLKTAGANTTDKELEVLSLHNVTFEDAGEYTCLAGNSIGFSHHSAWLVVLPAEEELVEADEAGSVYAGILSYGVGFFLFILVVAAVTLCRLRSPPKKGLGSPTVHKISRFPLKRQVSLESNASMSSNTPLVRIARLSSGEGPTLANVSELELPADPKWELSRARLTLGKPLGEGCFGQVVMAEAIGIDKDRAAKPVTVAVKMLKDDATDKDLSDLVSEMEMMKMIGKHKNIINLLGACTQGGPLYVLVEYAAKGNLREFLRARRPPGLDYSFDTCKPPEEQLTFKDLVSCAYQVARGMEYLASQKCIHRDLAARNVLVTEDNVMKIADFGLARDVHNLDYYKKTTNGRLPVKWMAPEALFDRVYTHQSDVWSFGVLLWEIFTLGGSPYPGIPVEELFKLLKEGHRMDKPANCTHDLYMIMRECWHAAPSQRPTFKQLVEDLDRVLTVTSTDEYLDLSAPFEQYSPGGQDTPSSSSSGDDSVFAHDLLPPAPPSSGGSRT
Outline: as §1

[4] = test system: SNU16 cells; test: SNU16 Cancer Cell Line Proliferation Assay (CellTiter-Glo); format: cell-based; conditions: Homo sapiens, SNU-16, 72 h
Outline: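 Luminescent ATP read-out after 72 h at 37 °C gave IC50 values; compounds tested as 9 three-fold serial dilutions on 5000 SNU16 cells per well, with DMSO as control.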

[5] = Pharmacokinetics in SD Rat; format: in vivo, Sprague-Dawley (SD) rat; conditions: male SD rat, plasma
Procedure: Animal studies were done as approved protocols by the Institutional Animal Care and Use Committee at INVIVO Biotech Co., Ltd.
Animal information: Sprague-Dawley (SD) rat, SPF, 6-8 weeks, Male, weight 200-250 g, purchased from Beijing Vital River Lab (Beijing, People's Republic of China).
Formulation: Prepare 1.5 mg/ml and 0.6 mg/ml compound solution in […](20% HPβCD) for PO and IV respectively, dosing immediately after preparation.
Administration: PO and IV;

[6] = Sprague-Dawley, PO 15 mg/kg (IV used for Clearance)
[7] = Sprague-Dawley, PO 15 mg/kg (IV used for Clearance), read-out: Cmax
[8] = PO 15 mg/kg (IV used for Clearance)

| Compound | IC50 [1] [nM] | Selectivity FGFR1/FGFR2 [2] | Selectivity FGFR3/FGFR2 [3] | IC50 [4] [nM] | clearance ([5]; Sprague-Dawley, IV 3 mg/kg) [mL/min/kg] | AUC(0-inf) [5, 6] [ng·h/mL] | half-life [5, 6] [h] | Cmax [5, 7] [ng/mL] | Cl ([5]; IV 3 mg/kg) [mL/min/kg] | AUC0-∞ [5, 8] [ng·h/mL] | Cmax [5, 8] [ng/mL] | T1/2 [5, 8] [h] |
| --- | --- | --- | --- | --- | --- | --- | --- | --- | --- | --- | --- | --- |
| C=C(F)C(=O)Nc1ccc(-c2nn3ncnc(N)c3c2-c2ccc(C(=O)NC34CC(F)(C3)C4)c(OC)c2)cc1 [Compound 330] | > 10 | A+ (Selectivity of FGFR1/FGFR2 greater or equal to 500) | A+ (Selectivity of FGFR3/FGFR2 greater or equal to 150) | ≤ 10 | 6.1 | 1820 | 2.4 | 509 |  |  |  |  |
| C=C(F)C(=O)Nc1ccc(-c2nn3ncnc(N)c3c2-c2ccc(C(=O)NCC(F)(F)F)c(OC)c2)cc1 [Compound 71, 4-(4-amino-6-(4-(2-fluoroacrylamido)phenyl)pyrazolo[5,1-f][1,2,4]triazin-5-yl)-2-methoxy-N-(2,2,2-trifluoroethyl)benzamide] |  |  |  |  | 18 | 3230 | 1.8 | 1300 |  |  |  |  |
| C=C(F)C(=O)Nc1ccc(-c2nn3ncnc(N)c3c2-c2ccc(C(=O)NC3CC(F)C3)c(OC)c2)cc1 (stereo not shown) [Compound 185, 4-(4-amino-6-(4-(2-fluoroacrylamido)phe-nyl)pyrazolo[5,1-f][1,2,4]triazin-5-yl)-N-(3-fluorocyclobutyl)-2-methoxybenzamide] | > 10 | A+ (Selectivity of FGFR1/FGFR2 greater or equal to 500) | A+ (Selectivity of FGFR3/FGFR2 greater or equal to 150) | ≤ 10 | 26 | 1550 | 3 | 507 |  |  |  |  |
| C=C(C)C(=O)Nc1ccc(-c2c(-c3ccc(Oc4nccc(C)n4)c(F)c3)c3c(N)ncnc3n2C)cc1 [Compound 0, N-(4-(4-amino-5-(3-fluoro-4-((4-methylpyrimidin-2-yl)oxy)phenyl)-7-methyl-7H-pyrrolo[2,3-d]pyrimidin-6-yl)phenyl)methacrylamide, reference compound] |  |  |  | ≤ 10 | 49 | 614 | 1.5 | 244 |  |  |  |  |
| C=C(F)C(=O)Nc1ccc(-c2nn3ncnc(N)c3c2-c2ccc(C(=O)NC3CC(F)(F)C3)c(OC)c2)cc1 [Compound 99] |  |  |  |  | 18 | 3080 | 1.4 | 2360 |  |  |  |  |
| C=C(F)C(=O)Nc1ccc(-c2[nH]c3c(C#N)cnc(N)c3c2-c2ccc(C(=O)NC3CC3)c(OC)c2)cc1 [Compound 235, 4-(4-amino-7-cyano-2-(4-(2-fluoroacrylamido)phe-nyl)-1H-pyrrolo[3,2-c]pyridin-3-yl)-N-cyclopropyl-2-methoxybenzamide] | < 5 | A+ (Selectivity of FGFR1/FGFR2 greater or equal to 500) | A+ (Selectivity of FGFR3/FGFR2 greater or equal to 150) | ≤ 10 | 5.4 | 2070 | 1.3 | 442 |  |  |  |  |
| C=C(F)C(=O)Nc1ccc(-c2nn3ncnc(N)c3c2-c2ccc(C(=O)NCCC(F)(F)F)c(OC)c2)cc1 [Compound 310] |  |  |  |  | 16 | 2970 | 1.1 | 1190 |  |  |  |  |
| C=C(F)C(=O)Nc1ccc(-c2[nH]c3c(C#N)cnc(N)c3c2-c2ccc(C(=O)NCC(F)(F)F)c(OC)c2)cc1 [Compound 302] |  |  |  |  | 3.4 | 1510 | 2.7 | 615 |  |  |  |  |
| C=CC(=O)Nc1ccc(-c2c(-c3ccc(C(=O)NCCF)c(OC)c3)c3c(N)ncc(C#N)c3n2C)cc1 [Compound 189, 4-(2-(4-acrylamidophenyl)-4-amino-7-cyano-1-methyl-1H-pyrrolo[3,2-c]pyridin-3-yl)-N-(2-fluoroethyl)-2-methoxybenzamide] | < 5 | B (Selectivity of FGFR1/FGFR2 less than 300 but greater than or equal to 200) | B (Selectivity of FGFR3/FGFR2 less than 100 but greater than or equal to 25) | ≤ 10 |  |  |  |  |  |  |  |  |
| [2H]C([2H])([2H])Oc1cc(-c2c(-c3ccc(NC(=O)C(=C)F)cc3)nn3ncnc(N)c23)ccc1C(=O)NCC1(F)CC1 [Compound 372, 4-(4-amino-6-(4-(2-fluoroacrylamido)phe-nyl)pyrazolo[5,1-f][1,2,4]triazin-5-yl)-N-((1-fluorocyclo-propyl)methyl)-2-(methoxy-d3)benzamide] | < 5 | A+ (Selectivity of FGFR1/FGFR2 greater or equal to 500) | A+ (Selectivity of FGFR3/FGFR2 greater or equal to 150) | ≤ 10 |  |  |  |  |  |  |  |  |
| C=C(F)C(=O)Nc1ccc(-c2nn3ncnc(N)c3c2-c2ccc(C(=O)NCC(F)(F)F)c(OC)c2)c(C)c1 [Compound 101, 4-(4-amino-6-(4-(2-fluoroacrylamido)-2-methylphenyl)pyrazolo[5,1-f][1,2,4]triazin-5-yl)-2-methoxy-N-(2,2,2-trifluoroethyl)benzamide] | < 5 | A+ (Selectivity of FGFR1/FGFR2 greater or equal to 500) | B (Selectivity of FGFR3/FGFR2 less than 100 but greater than or equal to 25) | ≤ 10 |  |  |  |  |  |  |  |  |
| C=C(F)C(=O)Nc1ccc(-c2[nH]c3c(C#N)cnc(N)c3c2-c2ccc(C(=O)NC3CC3)c(OC)c2)c(F)c1 [Compound 267, 4-(4-amino-7-cyano-2-(2-fluoro-4-(2-fluoroacrylamido)phe-nyl)-1H-pyrrolo[3,2-c]pyridin-3-yl)-N-cyclopropyl-2-methoxybenzamide] | < 5 | B (Selectivity of FGFR1/FGFR2 less than 300 but greater than or equal to 200) | A+ (Selectivity of FGFR3/FGFR2 greater or equal to 150) | ≤ 10 |  |  |  |  |  |  |  |  |
| C=CC(=O)Nc1ccc(-c2nn3ncnc(N)c3c2-c2ccc(C(=O)NCC3CCC3)c(OC)c2)cc1 [Compound 45, 4-(6-(4-acrylamidophenyl)-4-aminopyrazolo[5,1-f] [1,2,4]triazin-5-yl)-N-(cyclobutylmethyl)-2-methoxybenzamide] | < 5 | B (Selectivity of FGFR1/FGFR2 less than 300 but greater than or equal to 200) | B (Selectivity of FGFR3/FGFR2 less than 100 but greater than or equal to 25) | ≤ 10 |  |  |  |  |  |  |  |  |
| C=CC(=O)Nc1ccc(-c2c(-c3ccc(C(=O)NC4(C)CC4)c(OC)c3)c3c(N)ncc(C#N)c3n2C)cc1 [Compound 169] | < 5 | A+ (Selectivity of FGFR1/FGFR2 greater or equal to 500) | B (Selectivity of FGFR3/FGFR2 less than 100 but greater than or equal to 25) | ≤ 10 |  |  |  |  |  |  |  |  |
| C=C(F)C(=O)Nc1ccc(-c2nn3ncnc(N)c3c2-c2ccc(C(=O)NC3CC3)c(OC)c2)c(Cl)c1 [Compound 199, 4-(4-amino-6-(2-chloro-4-(2-fluoroacrylamido)phe-nyl)pyrazolo[5,1-f][1,2,4]triazin-5-yl)-N-cyclopropyl-2-methoxybenzamide] | < 5 | A+ (Selectivity of FGFR1/FGFR2 greater or equal to 500) | A+ (Selectivity of FGFR3/FGFR2 greater or equal to 150) | ≤ 10 |  |  |  |  |  |  |  |  |
| C=CC(=O)Nc1ccc(-c2c(-c3ccc(C(=O)NC(C)C)c(OC)c3)c3c(N)ncc(C#N)c3n2C)cc1 [Compound 108, 4-(2-(4-acrylamidophenyl)-4-amino-7-cyano-1-methyl-1H-pyrrolo[3,2-c]pyridin-3-yl)-N-isopropyl-2-methoxybenzamide] | < 5 | A+ (Selectivity of FGFR1/FGFR2 greater or equal to 500) | A (Selectivity of FGFR3/FGFR2 less than 150 but greater than or equal to 100) | ≤ 10 |  |  |  |  |  |  |  |  |
| C=CC(=O)Nc1ccc(-c2c(-c3ccc(Oc4nccc(C)n4)c(OC)c3)c3c(N)ncc(C(N)=O)c3n2C)cc1 [Compound 21, 2-(4-acrylamidophenyl)-4-amino-3-(3-methoxy-4-((4-methylpyrimidin-2-yl)oxy)phenyl)-1-methyl-1H-pyrrolo[3,2-c]pyridine-7-carboxamide] | < 5 | A+ (Selectivity of FGFR1/FGFR2 greater or equal to 500) | A (Selectivity of FGFR3/FGFR2 less than 150 but greater than or equal to 100) | > 50 |  |  |  |  |  |  |  |  |
| C=C(F)C(=O)Nc1ccc(-c2nn3ncnc(N)c3c2-c2ccc(C(=O)NC34CC(C3)C4)c(OC)c2)cc1 [Compound 270, 4-(4-amino-6-(4-(2-fluoroacrylamido)phe-nyl)pyrazolo[5,1-f][1,2,4]triazin-5-yl)-N-(bicyclo[1.1.1]pentan-1-yl)-2-methoxybenzamide] |  |  |  |  |  |  |  |  | 18 | 3384 | 978 | 2 |
